We go through one molecule from publication PMC5438364, “A broad-spectrum bactericidal lipopeptide with anti-biofilm properties” (Scientific Reports, 2017).

For data set [1], the system named is E. coli. The data set is classed as cell-based, Escherichia coli. The following applies: 48 h. As for the experimental part:
Staphylococci, Bacilli, Escherichia, Pseudomonas, Acinetobacter, Salmonella and Klebsiella species were grown in Luria Bertani broth (LB; 5 gr/l NaCl, 5 gr/l yeast extract, 10 gr/l tryptone). Enterococci and E. coli ML-35p were grown in Tryptic Soy Broth (TSB). Listeria and Streptococci were grown in Brain Heart Infusion (BHI). All bacteria were grown over-night at 37 °C with shaking. S. mutans 35668 plated on BHI agar for enumeration was grown for 48 hr. S. mutans UA159 was grown in 5% CO2 enriched atmosphere. Fusobacterium and Porphyromonas were grown in Wilkins-Chalgren growth medium and an anaerobic atmosphere.
Minimal inhibitory concentration (MIC) was determined using the microdilution assay. […] O.D. at 620 nm was measured (Synergy HT, BioTek Instruments, Winooski, VT, USA), and the MIC was determined as the lowest concentration for which no increase in O.D. was detected.

Data set [2] can be described thus: Self-assembly in solution by light scattering. The data set is classed as physicochemical. The following applies: for critical aggregation concentration: light scattering at 90°, 400 nm. How it is done:
To assess the OAK’s self-assembly in solution, serial two-fold dilutions of the OAK (initial concentration of 200 µM) were prepared in phosphate buffered saline (PBS; 10 mM Na2HPO4, 154 mM NaCl, pH = 7.4) and incubated for 2 hr at room temperature (RT). Light scattering at a 90° angle was measured through a 1 nm slit while holding both excitation and emission at 400 nm (Spectrophotometer Fluorolog-3 FL3–22; Horiba Jobin Yvon, Edison, NJ, USA). To evaluate the disassembly of these aggregates upon bacterial exposure, an OAK solution (200 µM) was incubated (2 hr in PBS, at RT) after which, bacteria were added (10^5 CFU/ml) and the light scattering evolution of these suspensions was monitored as described above.

Data set [3] deals with S. mutans ATCC 35668. Put plainly: Bactericidal kinetics (time-kill). The class given is cell-based, Streptococcus mutans. As for the experimental part:
(§1) Bactericidal kinetics was assessed by incubating 5 × 10^5 CFU/ml of mid-log-phase bacteria with the OAK for 3 hr at 37 °C with shaking. Aliquots were taken at t = 0, 0.5, 1, 2 and 3 hr, subjected to serial 10-fold dilutions in saline (NaCl = 0.85%) and plated for enumeration after 24–48 hr incubation at 37 °C.

Data set [4] in a line: Hydrophobicity by C18 RP-HPLC elution. The class given is physicochemical. The following applies: chromatographic, RP-HPLC C18 (Vydac), flow 2 ml/min, linear acetonitrile gradient 1%/min. How it is done:
OAKs were synthesized in-house (433 A Peptide Synthesizer; Applied Biosystems, Foster City, CA, USA) by the solid-phase method using 9-fluorenylmethyloxycarbonyl (Fmoc) active-ester chemistry on 4-methylbenzhydrylamine (MBHA) resin. OAKs were then deprotected and cleaved from the resin using trifluoroacetic acid:H2O (95:5) and purified to >95% chromatographic homogeneity by reverse phase high performance liquid chromatography (RP-HPLC) using C18 column (Vydac), a flow rate of 2 ml/min and a linear acetonitrile gradient of 1%/min (Alliance; Waters, Milford, MA, USA). Peaks identity was verified by mass-spectrometry (Xevo G2 Tof; Waters, Milford, MA, USA). Purified OAKs were then lyophilized and kept as dry powder at −20 °C.

Data set [5] concerns cultivable oral microflora. Put plainly: Bacterial killing in whole human saliva. The following applies: within two minutes of exposure, 37 °C. The class given is cell-based. How it is done:
Bactericidal kinetics in saliva was assessed as follows. Whole saliva was pooled from two-three healthy volunteers at a time, after obtaining their informed consent. To test for specific activity against S. mutans, saliva was centrifuged for 5 min at 15,000 g and 4 °C, and the supernatant was spiked with 1 × 10^7 CFU/ml of mid-log-phase S. mutans 35668. Otherwise, activity against natural oral microflora was also performed on whole saliva. Saliva was mixed with the tested compound, incubated at 37 °C with shaking, and aliquots were taken at t = 0, 2, 5 and 10 min. Aliquots were subjected to serial 10-fold dilutions in saline and plated on BHI agar for enumeration.

For data set [6], the system named is E. coli ML-35p. Kind of data set: Bactericidal kinetics (time-kill). The class given is cell-based, Escherichia coli. The following applies: within 2 hours exposure at ≥MIC; 5 × 10^5 CFU/ml, 37 °C. How it is done: as §1
The subject of data set [7] is S. aureus 29213. The class given is cell-based, Staphylococcus aureus. As for the experimental part:
(§2) Minimal inhibitory concentration (MIC) was determined using the microdilution assay. Mid-log-phase bacteria at 5 × 10^5 CFU/ml were incubated in a 96-well plate with serial two-fold dilutions of the tested compound for 18–24 hr at 37 °C (final volume of 200 µl). O.D. at 620 nm was measured (Synergy HT, BioTek Instruments, Winooski, VT, USA), and the MIC was determined as the lowest concentration for which no increase in O.D. was detected.

For data set [8], the system named is E. coli AG100. The data set is classed as cell-based, Escherichia coli. The following applies: wild type AG100.
From the text: (§3) Gram-negative bacteria tested were: ATCC strains Escherichia coli 25922, 43894, Pseudomonas aeruginosa 27853, 9027, Acinetobacter baumannii 19606, A. caloaceticus 31299, Salmonella Typhimurium 14028, Fusobacterium nucleatum 23726, Porphyromonas gingivalis 53977, clinical isolates E. coli 14182, 14384, U-16327, U-16329, P. aeruginosa 1278, Klebsiella pneumoniae 1287, K2–224, C2, A. baumannii 1279, 1280, 1281, F. nucleatum PK 1594, the engineered E. coli ML-35p and the isogenic K-12 pair AG100, AG100a (ΔacrAB). Dental related bacteria (generous gift of Prof. Doron Steinberg and Gilad Bachrach from the Hebrew University of Jerusalem) appear in bold characters.
as §2

Data set [9] concerns E. coli AG100A (ΔacrAB). The class given is cell-based, Escherichia coli. The conditions noted are these: efflux deletion-mutant AG100A.
From the text: as §3, §2

Structures are written as SMILES. Where a SMILES comes first, the peptide text is derived from it. [ ]: non-standard residue; d: D form. The star is where a group is joined. Myristoyl = CCCCCCCCCCCCCC(=O)*; 12Ado = NCCCCCCCCCCCC(=O)O

A word on the MIC: it is the lowest concentration found to suppress growth.

Turning to `CCCCCCCCCCCCCC(=O)N[C@@H](CCCCN)C(=O)N[C@@H](CCCCN)C(=O)NCCCCCCCCCCCC(=O)N[C@@H](CCCCN)C(N)=O` [C14KKc12K] (Myristoyl-KK[12Ado]K-NH2), the “MIC E.c.” value in data set [1] came to 3.12 µM. For the same molecule, in data set [2] (OAK 200 µM in PBS, 2 hr RT, then 10^5 CFU/ml S. aureus or E. coli, compared with C12KKc12K), the “disaggregation in presence of bacteria (light scattering)” value was “greater tendency to disaggregate in presence of bacteria”. Further, the critical aggregation concentration in data set [2] (PBS pH 7.4, 2 hr at RT) turned out to be 23 ± 3 µM; in data set [2] (supernatant of centrifuged saliva), 8 ± 1 µM. Moreover, the “concentration of sharp divergence of light scattering pattern (higher amplitudes)” value in data set [2] (PBS pH 7.4, 2 hr at RT, two-fold dilutions from 200 µM) is on record as ~ 20 µM. The same molecule had a bactericidal concentration in data set [3] (time-kill kinetics in BHI) of 1.56 µM. For the same molecule, the reduction of viability is recorded as ~ 2 log units in data set [3] (within 2 hours exposure to 1.56 µM, 5 × 10^5 CFU/ml, 37 °C) and more than 2 log-unit in data set [6]. Further, in data set [4], the “H, hydrophobicity, defined as % acetonitrile eluent in C18 HPLC column” value stood at 54%. Further, the “reduction of viability of cultivable oral microflora” value in data set [5] was more than 99%. Further, the MIC in [7], in data set [8] and in [9] was 3 µM each time.
